Each block holds one compound with its values, some of them ahead of it. The source made the active and inactive calls. No cut-off for these calls is given here.
Assays:
[1] = test system: Leucine-rich repeat serine/threonine-protein kinase 2 (Homo sapiens), Q5S007 [G2019S]; test: Inhibition of purified N-terminal GST-tagged LRRK2 G2019S mutant autophosphorylation activity using myelin basic protein as substrate at 25 uM
[2] = target: Leucine-rich repeat serine/threonine-protein kinase 2 (Homo sapiens) (UniProt Q5S007); test: Inhibition of wild type LRRK2 expressed in mouse SN4741 cells assessed as reduction in hydrogen peroxide-induced neurotoxicity at 10 uM by measuring cell survival after 48 hrs by crystal violet assay relative to control; format: cell-based
[3] = test system: Leucine-rich repeat serine/threonine-protein kinase 2 (Homo sapiens), Q5S007 [G2019S]; test: Inhibition of LRRK2 G2019S mutant expressed in mouse SN4741 cells assessed as reduction in hydrogen peroxide-induced neurotoxicity at 10 uM by measuring cell survival after 48 hrs by crystal violet assay relative to control; format: cell-based
[4] = target: Dual specificity tyrosine-phosphorylation-regulated kinase 1A (Homo sapiens) (UniProt Q13627); test: Inhibition of DYRK1A expressed in bacteria using [gamma32-P]ATP at 25 uM
[5] = target: Leucine-rich repeat serine/threonine-protein kinase 2 (Homo sapiens, UniProt Q5S007, G2019S); test: Inhibition of purified N-terminal GST-tagged LRRK2 G2019S mutant autophosphorylation activity using [gamma32-P]ATP
[6] = Neurotoxicity in rat primary cortical neurons assessed as cell survival at 100 uM after 24 hrs by MTT assay; format: toxicity, cell-based; conditions: cerebral cortex neuron
[7] = Neurotoxicity in rat primary cortical neurons assessed as cell survival at 10 uM after 24 hrs by MTT assay; format: toxicity, cell-based, Cerebral cortex neuron; conditions: read-out: Activity

Leucine-rich repeat serine/threonine-protein kinase 2 (Homo sapiens), Q5S007 [G2019S], sequence (Q5S007 whole entry G2019S): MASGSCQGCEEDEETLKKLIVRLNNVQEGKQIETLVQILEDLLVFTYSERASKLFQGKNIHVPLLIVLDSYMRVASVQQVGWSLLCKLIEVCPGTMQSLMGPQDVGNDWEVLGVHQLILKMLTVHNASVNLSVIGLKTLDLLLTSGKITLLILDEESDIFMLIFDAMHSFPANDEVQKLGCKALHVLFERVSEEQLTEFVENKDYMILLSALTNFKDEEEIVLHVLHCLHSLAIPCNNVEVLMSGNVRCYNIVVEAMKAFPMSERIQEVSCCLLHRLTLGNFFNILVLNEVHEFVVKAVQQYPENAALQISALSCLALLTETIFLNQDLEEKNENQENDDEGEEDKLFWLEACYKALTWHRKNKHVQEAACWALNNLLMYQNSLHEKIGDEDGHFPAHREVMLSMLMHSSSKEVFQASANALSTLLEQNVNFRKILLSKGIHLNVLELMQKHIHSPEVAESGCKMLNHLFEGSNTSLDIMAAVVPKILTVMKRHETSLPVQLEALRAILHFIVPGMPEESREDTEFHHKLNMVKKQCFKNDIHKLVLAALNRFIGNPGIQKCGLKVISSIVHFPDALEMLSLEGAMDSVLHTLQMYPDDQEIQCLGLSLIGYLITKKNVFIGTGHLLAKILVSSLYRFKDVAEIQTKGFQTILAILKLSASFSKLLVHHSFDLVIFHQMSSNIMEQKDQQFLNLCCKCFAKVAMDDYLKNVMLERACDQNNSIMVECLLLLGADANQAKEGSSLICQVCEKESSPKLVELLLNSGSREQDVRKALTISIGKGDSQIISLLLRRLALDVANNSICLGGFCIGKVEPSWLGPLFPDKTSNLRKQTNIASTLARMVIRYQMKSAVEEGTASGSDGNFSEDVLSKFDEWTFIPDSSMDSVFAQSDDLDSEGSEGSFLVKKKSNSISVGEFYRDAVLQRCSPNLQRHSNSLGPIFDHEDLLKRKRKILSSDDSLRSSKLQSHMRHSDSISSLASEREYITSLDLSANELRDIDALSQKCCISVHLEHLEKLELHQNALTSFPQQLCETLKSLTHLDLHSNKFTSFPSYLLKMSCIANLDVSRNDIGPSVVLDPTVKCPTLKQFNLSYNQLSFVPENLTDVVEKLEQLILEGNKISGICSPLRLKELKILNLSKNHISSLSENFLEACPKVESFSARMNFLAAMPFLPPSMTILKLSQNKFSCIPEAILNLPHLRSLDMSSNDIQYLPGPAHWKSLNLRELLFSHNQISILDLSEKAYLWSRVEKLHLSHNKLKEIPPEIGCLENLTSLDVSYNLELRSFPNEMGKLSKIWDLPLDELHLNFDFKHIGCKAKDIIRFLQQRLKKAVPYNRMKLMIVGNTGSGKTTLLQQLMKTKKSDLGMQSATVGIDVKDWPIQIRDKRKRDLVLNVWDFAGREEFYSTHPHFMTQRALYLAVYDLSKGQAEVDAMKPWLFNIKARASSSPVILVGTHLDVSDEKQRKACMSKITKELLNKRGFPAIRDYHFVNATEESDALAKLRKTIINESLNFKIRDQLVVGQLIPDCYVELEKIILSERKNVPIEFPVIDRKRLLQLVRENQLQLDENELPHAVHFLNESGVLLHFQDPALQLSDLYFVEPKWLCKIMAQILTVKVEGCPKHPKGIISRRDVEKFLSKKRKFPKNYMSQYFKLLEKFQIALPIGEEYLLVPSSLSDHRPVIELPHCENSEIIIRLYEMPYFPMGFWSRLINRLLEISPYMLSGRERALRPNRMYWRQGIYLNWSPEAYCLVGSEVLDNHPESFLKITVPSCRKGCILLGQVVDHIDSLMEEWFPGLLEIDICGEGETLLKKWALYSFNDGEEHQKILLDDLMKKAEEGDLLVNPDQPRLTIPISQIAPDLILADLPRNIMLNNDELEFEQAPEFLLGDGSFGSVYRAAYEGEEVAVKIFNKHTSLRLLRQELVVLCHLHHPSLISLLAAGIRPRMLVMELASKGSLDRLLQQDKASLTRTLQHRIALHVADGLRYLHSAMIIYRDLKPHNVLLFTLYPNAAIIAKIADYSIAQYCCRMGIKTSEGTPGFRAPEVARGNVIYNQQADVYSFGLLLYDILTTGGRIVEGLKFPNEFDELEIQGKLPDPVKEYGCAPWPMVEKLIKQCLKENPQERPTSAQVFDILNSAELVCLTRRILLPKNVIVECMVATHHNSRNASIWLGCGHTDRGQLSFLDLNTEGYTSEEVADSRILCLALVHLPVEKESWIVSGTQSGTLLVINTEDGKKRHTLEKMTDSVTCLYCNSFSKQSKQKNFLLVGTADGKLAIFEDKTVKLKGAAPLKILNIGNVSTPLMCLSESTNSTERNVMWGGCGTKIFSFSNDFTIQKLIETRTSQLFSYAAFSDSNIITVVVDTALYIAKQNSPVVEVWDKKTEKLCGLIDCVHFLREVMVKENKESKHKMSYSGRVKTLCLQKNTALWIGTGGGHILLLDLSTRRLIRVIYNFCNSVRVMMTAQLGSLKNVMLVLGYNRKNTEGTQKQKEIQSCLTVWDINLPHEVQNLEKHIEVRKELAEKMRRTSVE
Leucine-rich repeat serine/threonine-protein kinase 2, sequence (Q5S007 whole entry G2019S): as above
Leucine-rich repeat serine/threonine-protein kinase 2 (Homo sapiens), sequence (Q5S007 whole entry): as the sequence (Q5S007 whole entry G2019S) above, with S2019G counted along it

Structure (SMILES): COc1cc(/C=N/Nc2nc3cc(C)ccc3cc2C)ccc1O
inhibition [1]: Active

Structure (SMILES): Oc1ccc(/C=N/Nc2ccc3ccccc3n2)c(O)c1
inhibition [1]: Active

More lines, main results first:

inhibition [1]: Active
inhibition [4]: inactive
IC50 [5]: 13.2 µM
Structure (SMILES): Cc1cc(N/N=C/c2ccc(O)c(O)c2)nc2ccccc12
Activity [2]: 50%
Activity [3]: 50%
Activity [6]: Toxic
viability at 24 h, 10 µM [7]: 85%

inhibition [1]: Active
Structure (SMILES): COc1ccc(/C=N/Nc2ccc3ccccc3n2)cc1

inhibition [1]: Active
Structure (SMILES): Cc1ccc2cc(C)c(N/N=C/c3ccc(O)cc3)nc2c1

From ChEMBL document CHEMBL1770059, “Identification of chemicals to inhibit the kinase activity of leucine-rich repeat kinase 2 (LRRK2), a Parkinson's disease-associated protein” (Bioorg Med Chem Lett, 2011)
